Literature values, collected in patent US5084274A, “Inhibition of arterial thrombotic occlusion or thromboembolism” (Scripps Clinic and Research Foundation, priority 1987, dated 1992).

Test system: acute arterial thrombosis
Conditions: used alone or in combination

In the case of heparin, the “Response of acute complex arterial thrombosis (in words)” value is listed as “unresponsive”.
